From ChEMBL document CHEMBL1128095, “3,4-diarylthiophenes are selective COX-2 inhibitors” (Bioorg Med Chem Lett, 1995)

Legend:
[1] = target: T1, Prostaglandin G/H synthase 2 (Homo sapiens, UniProt P35354)
T1 sequence (P35354 whole entry): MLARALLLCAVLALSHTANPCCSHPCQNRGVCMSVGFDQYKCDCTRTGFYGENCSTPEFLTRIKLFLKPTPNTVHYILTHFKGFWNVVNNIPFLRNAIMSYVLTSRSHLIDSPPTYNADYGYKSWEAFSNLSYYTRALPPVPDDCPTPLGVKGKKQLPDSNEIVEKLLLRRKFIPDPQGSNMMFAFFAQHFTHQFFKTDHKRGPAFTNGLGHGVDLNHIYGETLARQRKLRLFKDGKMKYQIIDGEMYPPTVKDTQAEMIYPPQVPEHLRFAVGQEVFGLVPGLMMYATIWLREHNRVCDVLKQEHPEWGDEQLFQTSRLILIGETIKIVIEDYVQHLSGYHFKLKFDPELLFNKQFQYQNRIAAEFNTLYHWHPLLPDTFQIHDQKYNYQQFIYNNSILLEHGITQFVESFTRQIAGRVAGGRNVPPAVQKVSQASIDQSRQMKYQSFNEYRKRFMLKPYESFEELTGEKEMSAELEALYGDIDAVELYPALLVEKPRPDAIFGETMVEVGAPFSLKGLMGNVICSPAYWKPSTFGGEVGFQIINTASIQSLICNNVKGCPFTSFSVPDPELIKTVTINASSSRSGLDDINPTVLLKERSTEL
Description: Inhibitory activity against human recombinant Prostaglandin G/H synthase 2

[2] = target: Prostaglandin G/H synthase 1 (Homo sapiens, UniProt P23219); experiment: Inhibitory activity against human recombinant Prostaglandin G/H synthase 1
[3] = tested on: Rattus norvegicus; experiment: Compound was tested for its ability to inhibit carrageenan rat foot edema at 10 mg/kg dose; format: functional

Sequence of Prostaglandin G/H synthase 1 (P23219 whole entry): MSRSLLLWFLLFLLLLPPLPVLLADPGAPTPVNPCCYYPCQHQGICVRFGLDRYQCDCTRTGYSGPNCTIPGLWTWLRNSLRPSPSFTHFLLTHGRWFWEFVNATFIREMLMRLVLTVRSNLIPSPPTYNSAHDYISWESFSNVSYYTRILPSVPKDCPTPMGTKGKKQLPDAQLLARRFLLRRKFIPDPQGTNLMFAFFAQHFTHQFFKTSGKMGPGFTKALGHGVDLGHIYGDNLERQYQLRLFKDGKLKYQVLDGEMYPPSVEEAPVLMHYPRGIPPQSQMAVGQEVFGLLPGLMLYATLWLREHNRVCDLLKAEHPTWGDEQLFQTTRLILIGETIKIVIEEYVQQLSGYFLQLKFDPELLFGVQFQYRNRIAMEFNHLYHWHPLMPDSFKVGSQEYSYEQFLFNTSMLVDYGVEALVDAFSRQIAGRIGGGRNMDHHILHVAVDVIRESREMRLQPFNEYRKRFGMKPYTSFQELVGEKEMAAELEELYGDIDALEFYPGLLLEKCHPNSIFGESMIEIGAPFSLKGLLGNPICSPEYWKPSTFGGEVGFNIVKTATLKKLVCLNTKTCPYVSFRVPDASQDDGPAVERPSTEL

| Compound | IC50 [1] | IC50 [2] | inhibition in vivo at 10 mg/kg [3] |
| --- | --- | --- | --- |
| CS(=O)(=O)c1ccc(-c2c(Br)sc(Br)c2-c2ccc(F)cc2)cc1 | 0.7 µM | > 1000 µM |  |
| CS(=O)(=O)c1ccc(-c2cscc2-c2ccc(F)cc2)cc1 | 0.08 µM | > 1000 µM | 33% |
| CS(=O)(=O)c1ccc(-c2cc(Br)sc2-c2ccc(F)cc2)cc1 [DUP-697] |  |  | 57% |
| COc1ccc(-c2cscc2-c2ccc(S(C)(=O)=O)cc2)cc1F | 0.03 µM | > 100 µM |  |

Continued, in another order:

| IC50 [1] | IC50 [2] | Compound | inhibition in vivo at 10 mg/kg [3] |
| --- | --- | --- | --- |
| 0.05 µM | 0.9 µM | COc1ccc(-c2cscc2-c2ccc(S(C)(=O)=O)cc2)cc1 |  |
| 0.009 µM | 10 µM | COc1ccc(-c2cscc2-c2ccc(S(N)(=O)=O)cc2)cc1F |  |
| > 100 µM | > 100 µM | CS(=O)(=O)c1ccc(-c2c(-c3ccc(F)cc3)csc2Br)cc1 |  |
| 0.008 µM | 1.8 µM | NS(=O)(=O)c1ccc(-c2cscc2-c2ccc(F)cc2)cc1 | 46.5% |
|  | 5.2 µM | CS(=O)(=O)c1ccc(-c2csc(Br)c2-c2ccc(F)cc2)cc1 | 30% |
